Assay results: PubChem BioAssay AID256 (DTP/NCI, 2004)
Where “and” joins values, the source holds several entries; their conditions need not be identical. Equal entries are not always repeated. Inconclusive results and toxic doses are left out.

System: CD2F1 mice, L1210 leukemia ip, survival T/C
Assay: NCI In Vivo Anticancer Drug Screen. Data for tumor model L1210 Leukemia (intraperitoneal) in CD2F1 (CDF1) mice
Conditions: higher = longer survival
Outline: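 Transplantable tumor in mice; compound-treated vs vehicle-treated groups. Read-out = treated/control ratio of the measured endpoint.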

[1] = endpoint: mean survival time, dose: 12.5 mg/kg/injection, schedule: Q01DX009 (ip), vehicle: Klucel (hydroxypropylcellulose) (HPC)
[2] = endpoint: mean survival time, dose: 50.0 mg/kg/injection, schedule: Q01DX009 (ip), vehicle: Klucel (hydroxypropylcellulose) (HPC)
[3] = endpoint: mean survival time, dose: 50.0 mg/kg/injection, schedule: Q01DX009 (ip), vehicle: saline with Tween-80
[4] = endpoint: mean survival time, dose: 100.0 mg/kg/injection, schedule: Q01DX009 (ip), vehicle: saline with Tween-80
[5] = endpoint: mean survival time, dose: 100.0 mg/kg/injection, schedule: Q04DX003 (ip), vehicle: saline with Tween-80
[6] = endpoint: mean survival time, dose: 200.0 mg/kg/injection, schedule: Q04DX003 (ip), vehicle: saline with Tween-80
[7] = endpoint: mean survival time, dose: 400.0 mg/kg/injection, schedule: Q04DX003 (ip), vehicle: saline with Tween-80
[8] = endpoint: mean survival time, dose: 100.0 mg/kg/injection, schedule: Q01DX009 (ip), vehicle: Klucel (hydroxypropylcellulose) (HPC)
[9] = endpoint: mean survival time, dose: 200.0 mg/kg/injection, schedule: Q01DX009 (ip), vehicle: Klucel (hydroxypropylcellulose) (HPC)
[10] = endpoint: mean survival time, dose: 200.0 mg/kg/injection, schedule: Q01DX009 (ip), vehicle: saline with Tween-80
[11] = endpoint: mean survival time, dose: 400.0 mg/kg/injection, schedule: Q01DX009 (ip), vehicle: saline with Tween-80
[12] = endpoint: mean survival time, dose: 25.0 mg/kg/injection, schedule: Q01DX009 (ip), vehicle: Klucel (hydroxypropylcellulose) (HPC)
[13] = endpoint: mean survival time, dose: 100.0 mg/kg/injection, schedule: Q04DX002 (ip), vehicle: saline with Tween-80
[14] = endpoint: mean survival time, dose: 400.0 mg/kg/injection, schedule: Q04DX002 (ip), vehicle: saline with Tween-80

## COc1cc2c[n+](C)c3c4cc5c(cc4ccc3c2cc1OC)OCO5 (tested in a mixture with another compound)
endpoint: mean survival time, dose: 3.13 mg/kg/injection, schedule: Q01DX009 (ip), vehicle: other
  T/C: 118 % of control and 112 % of control
endpoint: mean survival time, dose: 5.0 mg/kg/injection, schedule: Q01DX009 (ip), vehicle: saline
  T/C: 119 % of control
endpoint: mean survival time, dose: 6.25 mg/kg/injection, schedule: Q01DX009 (ip), vehicle: Klucel (hydroxypropylcellulose) (HPC)
  T/C: 112 % of control
endpoint: mean survival time, dose: 6.25 mg/kg/injection, schedule: Q01DX009 (ip), vehicle: other
  T/C: 117 % of control and 112 % of control
[1]
  T/C: 124 % of control
endpoint: mean survival time, dose: 12.5 mg/kg/injection, schedule: Q01DX009 (ip), vehicle: other
  T/C: 113 % of control and 118 % of control
endpoint: mean survival time, dose: 25.0 mg/kg/injection, schedule: Q01DX009 (ip), vehicle: other
  T/C: 113 % of control and 116 % of control
[2]
  T/C: 112 % of control

## CCCCCCCC/C=C\CCCCCCCC(=O)NCCN1CCCCC1
endpoint: mean survival time, dose: 75.0 mg/kg/injection, schedule: Q01DX001 (ip), vehicle: saline
  T/C: 100 % of control
endpoint: mean survival time, dose: 150.0 mg/kg/injection, schedule: Q01DX001 (ip), vehicle: saline
  T/C: 96 % of control
endpoint: mean survival time, dose: 300.0 mg/kg/injection, schedule: Q01DX001 (ip), vehicle: saline
  T/C: 96 % of control

## CCOC(=O)C(C)(Br)C(=O)OCC
[3]
  T/C: 104 % of control
[4]
  T/C: 105 % of control

## OC(c1nc2ccccc2[nH]1)C(O)c1nc2ccccc2[nH]1 (stereo not drawn)
[5]
  T/C: 101 % of control
[6]
  T/C: 102 % of control
[7]
  T/C: 96 % of control

## C1CCc2nnnn2CC1
endpoint: mean survival time, dose: 12.5 mg/kg/injection, schedule: Q01DX009 (ip), vehicle: saline
  T/C: 98 % of control
endpoint: mean survival time, dose: 25.0 mg/kg/injection, schedule: Q01DX009 (ip), vehicle: saline
  T/C: 103 % of control
endpoint: mean survival time, dose: 50.0 mg/kg/injection, schedule: Q01DX009 (ip), vehicle: saline
  T/C: 95 % of control

## NNC(=O)c1ccc(Cl)cc1Nc1cccc(Cl)c1
[5]
  T/C: 112 % of control
[6]
  T/C: 89 % of control

## O/N=C\C[n+]1cc2ccccc2cc1/C=N\O
endpoint: mean survival time, dose: 12.5 mg/kg/injection, schedule: Q04DX003 (ip), vehicle: saline
  T/C: 93 % of control
endpoint: mean survival time, dose: 25.0 mg/kg/injection, schedule: Q04DX003 (ip), vehicle: saline
  T/C: 101 % of control
endpoint: mean survival time, dose: 50.0 mg/kg/injection, schedule: Q04DX003 (ip), vehicle: saline
  T/C: 90 % of control

## O=C(c1cccnc1)n1cc2c(n1)C1=C(CCCC1)CC2
[2]
  T/C: 90 % of control
[8]
  T/C: 105 % of control
[9]
  T/C: 102 % of control

## CCCCC(C)C1(CCC)NC(C)(C)CC(C)O1 (stereo not drawn)
endpoint: mean survival time, dose: 100.0 mg/kg/injection, schedule: Q01DX001 (ip), vehicle: saline with Tween-80
  T/C: 97 % of control
endpoint: mean survival time, dose: 200.0 mg/kg/injection, schedule: Q01DX001 (ip), vehicle: saline with Tween-80
  T/C: 101 % of control

## COc1ccc(OC)c(C=NCCN=Cc2cc(OC)ccc2OC)c1
[4]
  T/C: 87 % of control
[5]
  T/C: 90 % of control
[10]
  T/C: 95 % of control
[6]
  T/C: 88 % of control
[11]
  T/C: 87 % of control
[7]
  T/C: 87 % of control

## O=C(C(=O)c1ccccc1)c1ccccc1
endpoint: mean survival time, dose: 100.0 mg/kg/injection, schedule: Q01DX009 (ip), vehicle: saline
  T/C: 100 % of control
endpoint: mean survival time, dose: 200.0 mg/kg/injection, schedule: Q01DX009 (ip), vehicle: saline
  T/C: 101 % of control
endpoint: mean survival time, dose: 400.0 mg/kg/injection, schedule: Q01DX009 (ip), vehicle: saline
  T/C: 108 % of control

## Cc1ccc(Nc2ccc(Nc3ccc(C)cc3)c3c2C(=O)c2ccccc2C3=O)cc1
[4]
  T/C: 86 % of control
[10]
  T/C: 89 % of control
[11]
  T/C: 89 % of control

## CN1C(=O)CN=C(c2ccccc2)c2cc(Cl)ccc21
[1]
  T/C: 100 % of control
[12]
  T/C: 104 % of control
[2]
  T/C: 100 % of control
[9]
  T/C: 90 % of control

## CNC(=O)OCc1nc(SC)n(C)c1COC(=O)NC
endpoint: median survival time, dose: 12.5 mg/kg/injection, schedule: Q01DX005 (ip), vehicle: saline
  T/C: 103 % of control
endpoint: median survival time, dose: 12.5 mg/kg/injection, schedule: Q01DX005 (ip), vehicle: suspension in saline
  T/C: 111 % of control
endpoint: median survival time, dose: 25.0 mg/kg/injection, schedule: Q01DX005 (ip), vehicle: saline
  T/C: 111 % of control
endpoint: median survival time, dose: 25.0 mg/kg/injection, schedule: Q01DX005 (ip), vehicle: suspension in saline
  T/C: 114 % of control
endpoint: median survival time, dose: 65.0 mg/kg/injection, schedule: Q01DX005 (ip), vehicle: saline
  T/C: 175 % of control
endpoint: median survival time, dose: 200.0 mg/kg/injection, schedule: Q01DX005 (ip), vehicle: suspension in saline
  T/C: 87 % of control

## CS(=O)(=O)c1cccnn1
endpoint: mean survival time, dose: 100.0 mg/kg/injection, schedule: Q04DX003 (ip), vehicle: saline sonified
  T/C: 93 % of control
endpoint: mean survival time, dose: 200.0 mg/kg/injection, schedule: Q04DX003 (ip), vehicle: saline sonified
  T/C: 98 % of control
endpoint: mean survival time, dose: 400.0 mg/kg/injection, schedule: Q04DX003 (ip), vehicle: saline sonified
  T/C: 96 % of control

## CN(C)C(=O)Nc1nc2ccccc2s1
endpoint: mean survival time, dose: 25.0 mg/kg/injection, schedule: Q04DX002 (ip), vehicle: saline with Tween-80
  T/C: 103 % of control
endpoint: mean survival time, dose: 50.0 mg/kg/injection, schedule: Q04DX002 (ip), vehicle: saline with Tween-80
  T/C: 95 % of control
[13]
  T/C: 115 % of control and 93 % of control
[14]
  T/C: 90 % of control

## Nc1ncnc2c1ncn2[C@@H](/C=N\O)O[C@@H](/C=N\O)CO
endpoint: median survival time, dose: 12.5 mg/kg/injection, schedule: Q01DX005 (ip), vehicle: water
  T/C: 100 % of control
endpoint: median survival time, dose: 25.0 mg/kg/injection, schedule: Q01DX005 (ip), vehicle: water
  T/C: 96 % of control
endpoint: median survival time, dose: 50.0 mg/kg/injection, schedule: Q01DX005 (ip), vehicle: water
  T/C: 103 % of control
endpoint: median survival time, dose: 100.0 mg/kg/injection, schedule: Q01DX005 (ip), vehicle: water
  T/C: 97 % of control
endpoint: median survival time, dose: 200.0 mg/kg/injection, schedule: Q01DX005 (ip), vehicle: water
  T/C: 90 % of control

## C[n+]1ccn(Cc2ccc([N+](=O)[O-])cc2)c1
endpoint: mean survival time, dose: 100.0 mg/kg/injection, schedule: Q01DX001 (ip), vehicle: saline
  T/C: 100 % of control
endpoint: mean survival time, dose: 200.0 mg/kg/injection, schedule: Q01DX001 (ip), vehicle: saline
  T/C: 101 % of control

## Nc1c(-c2ncc[nH]2)ncn1C1OC(CO)C(O)C1O (stereo not drawn)
[13]
  T/C: 109 % of control
endpoint: mean survival time, dose: 200.0 mg/kg/injection, schedule: Q04DX002 (ip), vehicle: saline with Tween-80
  T/C: 97 % of control
[14]
  T/C: 102 % of control

## c1ccc(N=C(C(=Nc2ccccc2)c2ccccn2)c2cccnc2)cc1
endpoint: mean survival time, dose: 100.0 mg/kg/injection, schedule: Q01DX001 (ip), vehicle: Klucel (hydroxypropylcellulose) (HPC)
  T/C: 93 % of control
endpoint: mean survival time, dose: 200.0 mg/kg/injection, schedule: Q01DX001 (ip), vehicle: Klucel (hydroxypropylcellulose) (HPC)
  T/C: 103 % of control
endpoint: mean survival time, dose: 400.0 mg/kg/injection, schedule: Q01DX001 (ip), vehicle: Klucel (hydroxypropylcellulose) (HPC)
  T/C: 100 % of control

## CC(O)CCC(=O)c1ccoc1 (stereo not drawn)
endpoint: median survival time, dose: 0.62 mg/kg/injection, schedule: Q03HX015 (ip), vehicle: saline
  T/C: 109 % of control
endpoint: median survival time, dose: 1.25 mg/kg/injection, schedule: Q03HX015 (ip), vehicle: saline
  T/C: 117 % of control
endpoint: median survival time, dose: 2.5 mg/kg/injection, schedule: Q03HX015 (ip), vehicle: saline
  T/C: 106 % of control
endpoint: median survival time, dose: 3.75 mg/kg/injection, schedule: Q03HX015 (ip), vehicle: saline + alcohol
  T/C: 112 % of control
endpoint: median survival time, dose: 5.0 mg/kg/injection, schedule: Q03HX015 (ip), vehicle: saline
  T/C: 102 % of control
endpoint: median survival time, dose: 7.5 mg/kg/injection, schedule: Q03HX015 (ip), vehicle: saline + alcohol
  T/C: 105 % of control
endpoint: median survival time, dose: 10.0 mg/kg/injection, schedule: Q03HX015 (ip), vehicle: saline
  T/C: 109 % of control

## CCCCCCCCS
[4]
  T/C: 100 % of control
[10]
  T/C: 91 % of control
[11]
  T/C: 92 % of control

## COc1cccc(C(O)c2ccncc2C)c1OC (stereo not drawn)
[12]
  T/C: 97 % of control
[2]
  T/C: 97 % of control
[8]
  T/C: 95 % of control
[9]
  T/C: 98 % of control

## CC(=O)Nc1ccc(/C=N/NC(=O)CNC(=O)Nc2cccc(C(F)(F)F)c2)cc1
[3]
  T/C: 88 % of control
[4]
  T/C: 88 % of control
[10]
  T/C: 92 % of control
